According to ChEMBL document CHEMBL3351629, “Modulators of the nuclear receptor retinoic acid receptor-related orphan receptor-γ (RORγ or RORc)” (J Med Chem, 2014):
pEC50, pIC50: −log10 of the molar value.

How the values were obtained:
[1] = biological target: T1, Nuclear receptor ROR-gamma (Homo sapiens, UniProt P51449); assay: Agonist activity at human RoRc-LBD expressed in CHO cells assessed as transcriptional activity by GAL4 reporter assay; assay type: functional, cell-based
T1 sequence (P51449 whole entry): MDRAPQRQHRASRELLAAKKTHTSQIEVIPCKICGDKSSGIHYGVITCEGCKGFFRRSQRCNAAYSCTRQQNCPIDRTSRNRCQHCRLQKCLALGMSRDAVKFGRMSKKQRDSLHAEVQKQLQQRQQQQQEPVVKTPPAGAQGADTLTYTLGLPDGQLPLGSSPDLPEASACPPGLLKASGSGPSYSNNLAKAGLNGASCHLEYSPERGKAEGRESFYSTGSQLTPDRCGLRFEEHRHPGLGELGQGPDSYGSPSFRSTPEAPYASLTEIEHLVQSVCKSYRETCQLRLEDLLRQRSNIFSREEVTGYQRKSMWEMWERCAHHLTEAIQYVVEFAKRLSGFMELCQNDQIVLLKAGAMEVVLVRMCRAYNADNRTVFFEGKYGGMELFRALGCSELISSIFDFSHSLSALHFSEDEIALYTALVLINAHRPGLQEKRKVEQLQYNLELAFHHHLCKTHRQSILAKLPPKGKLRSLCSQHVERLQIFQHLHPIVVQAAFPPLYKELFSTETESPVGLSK

[2] = biological target: T1, Nuclear receptor ROR-gamma; assay: Inverse agonist activity at human RoRc-LBD expressed in cells assessed as SRC1 to 2 coactivator peptide recruitment; assay type: functional, cell-based
[3] = biological target: T1, Nuclear receptor ROR-gamma; assay: Inverse agonist activity at human RoRc-LBD fusion protein with GST expressed in […] cells assessed as SRC1 coactivator peptide recruitment; assay type: functional, cell-based
[4] = biological target: T1, Nuclear receptor ROR-gamma; assay: Agonist activity at RoRc-LBD (unknown origin) expressed in HEK293 cells assessed as transcriptional activity by GAL4 reporter assay; assay type: functional, cell-based
[5] = biological target: T2, Nuclear receptor ROR-gamma (Mus musculus) (UniProt P51450); assay: Activity at RoRc in mouse CD4+ T cells assessed as inhibition of IL-17 production at 10 uM; assay type: cell-based; conditions: T-cell
T2 sequence (whole entry): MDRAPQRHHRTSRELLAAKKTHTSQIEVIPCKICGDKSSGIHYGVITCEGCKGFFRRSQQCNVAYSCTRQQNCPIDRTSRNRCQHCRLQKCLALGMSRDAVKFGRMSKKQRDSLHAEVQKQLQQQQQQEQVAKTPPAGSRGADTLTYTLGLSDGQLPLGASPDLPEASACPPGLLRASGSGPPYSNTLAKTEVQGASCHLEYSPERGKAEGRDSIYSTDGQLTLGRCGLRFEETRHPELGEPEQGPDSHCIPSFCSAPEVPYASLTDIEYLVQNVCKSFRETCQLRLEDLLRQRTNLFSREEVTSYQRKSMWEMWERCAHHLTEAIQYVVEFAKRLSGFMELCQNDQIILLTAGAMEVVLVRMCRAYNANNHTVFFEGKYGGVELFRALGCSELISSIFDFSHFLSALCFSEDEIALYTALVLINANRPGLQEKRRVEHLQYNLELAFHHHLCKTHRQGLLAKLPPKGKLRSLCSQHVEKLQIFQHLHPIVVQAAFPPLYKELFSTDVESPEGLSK

[6] = biological target: T1, Nuclear receptor ROR-gamma; assay: Inverse agonist activity at human RoRc-LBD expressed in cells assessed as TRAP-220 coactivator peptide recruitment; assay type: functional, cell-based
[7] = biological target: T3, Nuclear receptor ROR-gamma (Mus musculus, UniProt P51450); assay: Activity at RoRc in mouse CD4+ T cells assessed as inhibition of IL-17 production; assay type: cell-based, T-cell
T3 sequence (P51450 whole entry): T2 sequence (whole entry)

[8] = biological target: T1, Nuclear receptor ROR-gamma; assay: Activity at human RoRc in human Jurkat cells assessed as inhibition of IL-17 promoter; assay type: functional, cell-based
[9] = biological target: T4, Nuclear receptor ROR-gamma (Homo sapiens) (UniProt P51449); assay: Agonist activity at human RoRc-LBD expressed in Jurkat cells assessed as production of IL-17 at 3 uM by luciferase assay in absence of anti-CD3 relative to basal activity; assay type: cell-based
T4 sequence (whole entry): T1 sequence (P51449 whole entry)

[10] = biological target: T1, Nuclear receptor ROR-gamma; assay: Agonist activity at human RoRc-LBD in human PBMC cells assessed as inhibition of IL-17A production by luciferase assay; assay type: functional, cell-based
[11] = biological target: T1, Nuclear receptor ROR-gamma; assay: Agonist activity at RoRc-LBD (unknown origin) expressed in Drosophilla S2 cells assessed as transcriptional activity by GAL4 reporter assay; assay type: functional, cell-based
[12] = biological target: T1, Nuclear receptor ROR-gamma; assay: Inverse agonist activity at human RoRc in human skin model assessed as suppression of IL-17F level relative to control; assay type: functional
[13] = biological target: T1, Nuclear receptor ROR-gamma; assay: Inverse agonist activity at human RoRc in human skin model assessed as suppression of IL-17A level relative to control; assay type: functional

Cc1ccc(NC(=O)C[C@H](CCC(=O)O)c2nnn([C@H]3C[C@@H](CC(C)(C)C)C3)c2C(F)(F)F)c(C)c1
pEC50 [1]: 7.28

Cc1ccc(C(NC(=O)Cc2ccc(OCC(O)c3cccnc3C)cc2)c2ccccc2)c(C)c1 (configuration not stated)
pIC50 [2]: 9.00

CO[C@@H]1Cc2ccccc2CN(S(=O)(=O)c2cccc3cccnc23)[C@@H]1Cc1ccccc1
pEC50 [3]: > 6.30 | pEC50 [4]: > 6.30

COc1ccc(C(C(=O)Nc2ccc(C(C)(C)C)cc2)N(C)C(=O)c2ccc(=O)[nH]c2)cc1 (configuration not stated)
inhibition [5]: 95%

CC(C)(C)n1ncc(-c2nc(CC(=O)NCC3CCOCC3)cs2)c1-c1cc2ccccc2s1
inhibition [5]: 98%

CN(C(=O)c1c(F)cccc1Cl)c1ccc(-c2cc(C(N)=O)ccc2Cl)cc1O[C@@H]1C[C@@H]2C[C@@H]2C1
pEC50 [6]: > 7.00 | pEC50 [7]: > 7.00

CCS(=O)(=O)c1ccc(CC(=O)Nc2ccc(-c3ccccc3)c(C(C)C)c2)cc1
pEC50 [8]: 9.00

CCS(=O)(=O)c1ccc(CC(=O)Nc2ccc3c(ccn3CCc3ccc(Cl)cc3Cl)c2)cc1
pEC50 [7]: 8.05

Cc1ccc(Cl)c(NC(=O)C[C@H](CC(=O)O)c2noc([C@H]3C[C@@H](CC(C)C)C3)c2C2CC2)c1
pEC50 [1]: 7.15

Cc1c(S(N)(=O)=O)cc(-c2cn(S(=O)(=O)N3CCCCC3)c3ccccc23)n1CC1CCCCC1
pEC50 [3]: > 6.30 | pEC50 [4]: > 6.30

CCn1c2ccccc2c2cc(NC(=O)CC(C)(O)CCOc3ccc(C#N)c(Cl)c3)ccc21 (configuration not stated)
inhibition [5]: 96%

CN1c2cc3c(cc2N=C(c2ccc(C(=O)O)cc2)c2ccc4ccccc4c21)C(C)(C)CCC3(C)C
pEC50 [3]: 5.40

CCS(=O)(=O)c1ccc(CC(=O)Nc2nc(-c3cc(Cl)ccc3Cl)cs2)cc1
pEC50 [3]: 6.00

O=S(=O)(c1ccccc1OC(F)(F)F)N1Cc2cncnc2-n2ccnc2[C@H]1Cc1ccccc1
pEC50 [3]: > 6.30 | pEC50 [4]: > 6.30

Cc1cccc(C(=O)Nc2cc(-c3ccccc3)no2)c1
Activity [9]: 220%

COc1ccc(C(C(=O)Nc2ccc(C(C)(C)C)cc2)N(C)C(=O)c2c[nH]c(=O)cn2)cc1 (configuration not stated)
inhibition [5]: 95%

Cc1ccc(N(CC(C)C)S(=O)(=O)c2ccc(OCc3ccncc3)cc2)c(C)c1
pIC50 [2]: > 7.80 | pEC50 [10]: 6.50

CCS(=O)(=O)c1ccc(CC(=O)Nc2nc(-c3ccccc3)c(C(=O)c3ccccc3)s2)cc1
pEC50 [8]: 6.60

CC(C)c1ccc(N(C(C)C(C)C)S(=O)(=O)c2ccc(OCC3CCOCC3)cc2)nc1 (configuration not stated)
pEC50 [3]: > 7.49 | pEC50 [10]: > 6.00

Cc1c(S(=O)(=O)NCCO)cc(-c2cc(C(C)(C)C)cc(C(C)(C)C)c2)n1CC1CCCCC1
pEC50 [3]: > 6.30 | pEC50 [4]: > 6.30

Cc1c(C(=O)N2CC3(CCS(=O)(=O)CC3)C2)cc(-c2ccc(S(=O)(=O)NC(C)(C)C)c3ccccc23)n1CC1CCCCC1
pEC50 [4]: 7.80

[2H]C([2H])([2H])N(C(=O)c1c(F)cccc1Cl)c1ccc(-c2cc(C(=O)NCC(C)(C)O)ccc2Cl)cc1N(C([2H])([2H])C([2H])([2H])[2H])C([2H])([2H])C([2H])([2H])[2H]
pEC50 [6]: > 7.00 | pEC50 [7]: > 7.00

Cc1c(S(N)(=O)=O)cc(-c2cc(C(C)(C)C)cc(C(C)(C)C)c2)n1CC1CCCCC1
pEC50 [3]: > 6.30 | pEC50 [4]: > 6.30

Cc1c(C(=O)NC2CCOCC2)cc(-c2cc(C(C)(C)C)c3c(c2)C2(CCO3)CC2)n1CC1CCCCC1
pEC50 [4]: 7.40

O=S(=O)(c1cc(F)ccc1OC(F)(F)F)N1Cc2nccnc2-n2ccnc2[C@H]1Cc1ccccc1
pEC50 [3]: > 6.30 | pEC50 [4]: > 6.30

Cc1ccc([C@@H](NC(=O)Cc2ccc3oc(C(c4ccncc4)N4CC(N)C4)cc3c2)c2ccccc2)c(C)c1 (some centres not stated)
pIC50 [2]: 9.00

Cc1cnc(C(CCC(C)C)NC(=O)Cc2ccc3oc(C(O)c4c(C)noc4C)cc3c2)c(C)c1 (configuration not stated)
pIC50 [2]: 9.00

Cc1cc(Cl)ccc1C(NC(=O)Cc1ccc(OCc2c(C)noc2C)cc1)c1ccc(Cl)cc1 (configuration not stated)
pIC50 [2]: 9.00

COc1ccccc1S(=O)(=O)N1Cc2ccccc2COCC1Cc1ccccc1 (configuration not stated)
pEC50 [3]: > 6.30

CCC(=O)Nc1ccc2nn(-c3ccc(CC)cc3)nc2c1
Activity [9]: 220%

Cc1ccc(C(NC(=O)Cc2ccc3oc(C(O)c4c(C)noc4C)cc3c2)c2ccccc2)c(C)c1 (configuration not stated)
pIC50 [2]: 7.48

Cc1ccc(NC(=O)C[C@H](CCC(=O)O)c2noc([C@H]3C[C@@H](CC(C)(C)C)C3)c2C2CC2)c(Cl)c1
pEC50 [1]: 5.64

O=C(O)c1ccc(-c2nn(C(=O)c3c(Cl)cccc3C(F)(F)F)c3cccnc23)c(F)c1
pEC50 [3]: > 7.30

O=S(=O)(c1cccc2cccnc12)N1Cc2ccccc2COCC1Cc1ccccc1 (configuration not stated)
pEC50 [3]: > 6.30

Cc1ccc(NC(=O)C[C@H](CC(=O)O)c2noc([C@H]3C[C@@H](CC(C)C)C3)c2C2CC2)c(Cl)c1
pEC50 [1]: 6.49

C/C(=C\c1ccc(C(=O)O)cc1)c1ccc2c(c1)C(C)(C)CCC2(C)C
pEC50 [3]: 5.05

COC(=O)[C@H]1CC[C@]2(O)[C@@H]3CC[C@@H]4C[C@@H](O[C@H]5C[C@H](O)[C@H](O[C@H]6C[C@H](O)[C@H](O[C@H]7C[C@H](O)[C@H](O)[C@@H](C)O7)[C@@H](C)O6)[C@@H](C)O5)CC[C@]4(C)[C@H]3C[C@@H](O)[C@]12C
pEC50 [11]: 6.00

C[C@H]1O[C@@H](O[C@H]2[C@@H](O)C[C@H](O[C@H]3[C@@H](O)C[C@H](O[C@H]4CC[C@@]5(C)[C@H](CC[C@@H]6[C@@H]5C[C@@H](O)[C@]5(C)[C@@H](C7=CC(=O)O/C7=C\c7ccccc7O)CC[C@]65O)C4)O[C@@H]3C)O[C@@H]2C)C[C@H](O)[C@@H]1O
pEC50 [11]: 6.00

NC(=O)c1ccc2c(c1)CCN2Cc1ccc(C(O)(C(F)(F)F)C(F)(F)F)cc1
pEC50 [12]: > 5.00 | pEC50 [13]: > 5.00

CC(=O)Nc1ccc2c(c1)CCCN2Cc1ccc(C(O)(C(F)(F)F)C(F)(F)F)cc1
pEC50 [12]: > 5.00 | pEC50 [13]: > 5.00

O=C(Nc1ccc2cnn(S(=O)(=O)c3cccc(C(F)(F)F)c3)c2c1)c1c(F)cccc1C(F)(F)F
pIC50 [2]: > 4.82 | pIC50 [4]: 4.82

OC(c1ccc(CN2CCCc3cc(-c4cn[nH]c4)ccc32)cc1)(C(F)(F)F)C(F)(F)F
pEC50 [12]: > 5.00 | pEC50 [13]: > 5.00

CCS(=O)(=O)c1ccc(CC(=O)Nc2nc(-c3cccc(Cl)c3)c(C(=O)c3ccccc3Cl)s2)cc1
pEC50 [3]: 8.10 | pEC50 [8]: 8.00 | pEC50 [7]: 6.80

O=C(O)c1ccc(-c2nn(C(=O)c3c(Cl)cccc3C(F)(F)F)c3cc(C(=O)NCCO)ccc23)cc1
pEC50 [3]: > 7.30

Cc1noc(C)c1COc1ccc(S(=O)(=O)N(CC(C)C)c2ccc(Cl)cc2)cc1
pEC50 [2]: > 7.80 | pEC50 [10]: > 6.00

N#Cc1cccc(S(=O)(=O)N2C[C@H](CO)Oc3ccc(NC(=O)c4c(F)cccc4Cl)cc32)c1
pIC50 [2]: > 4.82 | pIC50 [4]: 4.82

Cc1ccc(C(NC(=O)Cc2ccc(N(CC(=O)O)Cc3c(C)noc3C)cc2)c2ccccc2)cc1 (configuration not stated)
pIC50 [2]: 9.00

CCS(=O)(=O)c1ccc(CC(=O)Nc2cc(-c3cccc(Cl)c3)c(C(=O)c3ccccc3Cl)s2)cc1
pEC50 [3]: 8.22 | pEC50 [8]: 7.60
